In general, solubility refers to the concentration that dissolves in the medium under given conditions.

Results on two compounds are retold here after patent US20260241119A1, “METERED DOSE INHALERS AND SOLUTIONS INCLUDING CANNABINOIDS IN HFA-152A” (Kindeva Drug Delivery L.P., priority 2023, published 2026).

Data set [1] can be described thus: Equilibrium saturated solubility in HFA-152a without cosolvent. Format: physicochemical. Particulars: organic solvent or mixture, thermodynamic from solid, no cosolvent. The protocol: In this Example, the equilibrium saturated solubility of Δ-9-THC and CBD individually in HFA-152a. was measured.
[…]. Each solution was covered with aluminum foil to prevent UV light from reaching the drug. A first set of solutions was then shaken at room temperature for 4 days. A second set of solutions was stored at 5° C. and manually shaken several times per day. After 4 days, each solution was filtered to remove undissolved CBD and/or Δ-9-THC, and the concentration of each cannabinoid was measured. Formulations were assessed for solubility at room temperature and at 5° C.

A short description of data set [2]: Equilibrium saturated solubility in HFA-134a (comparative). The format is physicochemical. Particulars: room temperature. As to the method:
(§1) In this Example, the equilibrium saturated solubility of CBD or Δ-9-THC individually in HFA-227 and HFA-134a was measured.
(§2) […]. Each solution was shaken at room temperature for 4 days, after which each solution was filtered to remove undissolved CBD and/or Δ-9-THC, and the concentration of each cannabinoid was measured. The equilibrium saturated solubility of each cannabinoid in each propellant was measured at room temperature.

The nature of data set [3]: Equilibrium saturated solubility in HFA-227 (comparative). The format is physicochemical. Particulars: organic solvent or mixture, thermodynamic from solid, room temperature. As to the method:
as §1, §2

The conditions of data set [4]: for solubility at 14 days: organic solvent or mixture; for visual solubility: HFA-152a, after 14 days, ambient conditions or 5° C.

SMILES strings stand for the structures. Converted amounts (≈) assume the structure as drawn. Like-named read-outs stand apart in the source and are kept apart here. Some results are limits rather than exact numbers.

Regarding `C=C(C)[C@@H]1CCC(C)=C[C@H]1c1c(O)cc(CCCCC)cc1O` [CBD, 2-[(1R,6R)-6-Isopropenyl-3-methylcyclohex-2-en-1-yl]-5-pentylbenzene-1,3-diol], the solubility at 4 days in data set [1] (5° C.) is at least 16400 µg/mL; in data set [1] (room temperature), at least 15700 µg/mL; in data set [3] it was 1800 µg/mL (≈ 5.72 mM). Further, the “equilibrium saturated solubility in HFA-134a” value in data set [2] (4 days) was determined as 2500 µg/mL. For the same compound, the solubility at 14 days in data set [4] (HFA-152a with 1-3% ethanol by weight) is at least 15900 µg/mL. Besides, the visual solubility entry in data set [4] (1% ethanol by weight) was “Soluble”; in data set [4] (2% ethanol by weight), “soluble”; in data set [4] (3% ethanol by weight) it was “soluble”.

In the case of `CCCCCc1cc(O)c2c(c1)OC(C)(C)[C@@H]1CCC(C)=C[C@@H]21` [Δ-9-THC, (6aR,10aR)-6,6,9-trimethyl-3-pentyl-6a,7,8,10a-tetrahydro-6H-benzo[c]chromen-1-ol], the solubility at 4 days in data set [1] (5° C.) was at least 21800 µg/mL; in data set [1] (room temperature), at least 24700 µg/mL; in data set [2] (organic solvent or mixture, thermodynamic from solid), 2300 µg/mL (≈ 7.31 mM); in data set [3], 1500 µg/mL (≈ 4.77 mM). Besides, in data set [4] (HFA-152a with 4%, […]), the solubility at 14 days was at least 15900 µg/mL. The visual solubility result in data set [4] (4% ethanol by weight), in data set [4] (5% ethanol by weight) and in data set [4] (6% ethanol by weight) was “Soluble” in each case.
